Data reported in patent US12576051B2, “Methods and composition for treating respiratory obstructive diseases” (The Regents of the University of California, priority 2019, dated 2026).

Columns and labels:
[1] = test system: mucin released over the luminal airway surface; assay: Mucin clearance on surface airway epithelium of isolated porcine airways (histology); conditions: 200 μM, 5 min, after bicarbonate (25 mM) and PGE2 (10 μM) 5 min at 37° C.
Experimental: Cysteamine facilitates clearance of mucin released over the luminal airway surface. Porcine airways were incubated in the presence of buffer containing bicarbonate (25 mM) and PGE2 (10 μM) for 5 min at 37° C. Thereafter, airways were subsequently incubated in the presence or absence of Cysteamine (200 μM) for an additional 5 min. Airways, were harvested and processed for histological analysis.
(§1) Biological specimens: Isolated native porcine airways were used as experimental model. Sections of open trachea tissue (approx. 2 cm^2) were carefully rinsed and cover small volume of NaHCO3-Ringer solution. Mucus secretion was stimulated with Prostaglandin E2 (PGE2, 10−6 M). Secreted mucus over the dissected open airways was carefully collected, aliquoted and immediately frozen at −80° C.

Porcine mucin 15% (W/V) = assay: Mucolytic activity: mucin viscosity by volume displaced through Pasteur pipette; assay type: biochemical; conditions: 10 mg/mL, Ringer buffer with bicarbonate (25 mM), 4 hours at 37° C.; versus without cysteamine
Experimental: Porcine mucin 15% (W/V) was incubated in Ringer buffer solution containing bicarbonate (25 mM) in the presence (+) or absence (−) of Cysteamine bitartrate (10 mg/mL), for 4 h at 37° C. Thereafter, equal volume of mucin solution from each condition were aspirated separately in a sterile Pasteur pipette. Changes in mucin viscosity was measured by the rapidity of the volume displaced toward the bottom of the pipette, as indicated in each panel (0-12 seconds). […] Porcine mucin 15% (W/V) was incubated in Ringer buffer solution containing bicarbonate (25 mM) in the presence (+) or absence (−) of cysteamine bitartrate (10 mg/mL), for 4 hours at 37° C. Changes in mucin viscosity was determined by the percentage of volume displaced as a function of time (0-12 seconds) through a vertical sterile Pasteur pipette tip at room temperature.

[2] = test system: porcine gastric mucin extract (50 kDa band matched to Muc5ac mucin); assay: Mucolytic activity on gastric mucin (electrophoresis, Coomassie stain); assay type: biochemical; conditions: summary of FIG. 7 and FIG. 8
Experimental: FIG. 7 presents the effects of cysteamine bitartrate and compound 646 on porcine gastric mucin extract. One hundred microliters of gastric mucin extract (5 mg/mL) was incubated with and without cysteamine bitartrate and compound 646 separately, at 37° C. for 60 minutes.
Gastric Mucin extract solution: Mucin was prepared as stock solution of 5 mg/mL in water, in NaCl Ringer (150 mM Na^+, 4.6 mM K^+, 1 mM Ca^2+, 1 mM Mg^2+, 150 mM Cl^−, 2.5 mM PO4^x− and 10 mM glucose) pH 7.2, and in HCO3-Ringer solution (150 mM Na^+, 4.6 mM K^+, 1 mM Ca^2+, 1 mM Mg^2+, […] HCO3^−, 2.5 mM PO4^x− and 10 mM glucose) pH 8.
(§2) Mucolytic activity on gastric mucin. One hundred microliters of mucin solution were incubated with Cysteamine bitartrate or compound 646 at final concentrations from 0 to 2 mM as indicated in the text. Mixture was incubated at 37° C. for 0-1 hr. Mucolytic activity was ended with 30 microliters of SDS-sample buffer solution. Forty-five microliters of each sample/well were separated in an electrophoresis gel 4-12% Tris-Glycine. After electrophoresis gels were stained with Coomassie Blue solution.
In vitro mucolytic activity of cysteamine bitartrate and compound 646. To evaluate the mucolytic activity of cysteamine bitartrate and 2-aminoethane-1-d-1-thiol hydrochloride (Compound 646), gastric mucin extract was used as a substrate that was treated with 200 and 400 μM of cysteamine bitartrate or Compound 646 respectively.
Mass spectrometry analysis of the isolated 50 kDa protein band. Muc5ac and Muc6 mucins are two major secretory mucins found in the stomach. In order identify which of these mucins were part of the 50 kDa band, mass spectrometry was utilized. Mass spectrometry analysis of the 50 kDa protein band identified 17 unique peptides that matched with porcine Muc5ac mucin.

porcine airway = assay: Ex vivo porcine airway models (summary statement)
Description: Abnormal mucus accumulation in airways has deleterious, and fatal consequence in patients suffering from respiratory obstructive diseases, such as cystic fibrosis (CF), COPD and asthma. Therefore, there is a need for therapies aimed at decreasing mucus accumulation to facilitate airway mucus clearance.

porcine airway mucus = assay: Mucolytic activity on porcine airway mucin (electrophoresis, Coomassie stain); assay type: biochemical; conditions: summary of FIG. 10
Experimental: FIG. 9 presents the effect of compound 646 on porcine airway mucus. Mucus collected from porcine upper airways diluted in NaHCO3-Ringer, was treated with different concentrations of compound 646 (0, 0.25. 0.5 and 1 mM), for 60 minutes at 37° C. In lane 1, representative protein pattern after electrophoresis protein separation of untreated porcine airway mucus (40 μg/well).
Airway mucus supernatant diluted in NaHCO3-Ringer was treated with or without cysteamine bitartrate under basic and acidic conditions at 37° C. for 60 minutes.
as §1
as §2, with “porcine airway mucin:” for “gastric mucin.”, “collected porcine airway supernatant was” for “mucin solution were”, “text.” for “text. Mixture was incubated at 37° C. for 0-1 hr.”, “45” for “Forty-five”
Mucolytic activity of synthetic compound 646. Respiratory airway mucus contained Muc5aC and Muc5B mucins. In order to determine whether compound 646 be used as a mucolytic agent for respiratory airways, supernatant of mucus collected from porcine airways was treated with compound 646 at different concentration (0-1 mM) for 1 h at 37° C.
Mucolytic activity of cysteamine bitartrate under basic and acidic conditions. To validate whether mucolytic activity of cysteamine bitartrate depends on changes of pH, airway mucus supernatant was incubated for 1 h at 37° C. with or without 2 mM cysteamine bitartrate diluted in NaHCO3. An additional airway mucus sample was treated with cysteamine bitartrate and supplemented with 4 μL of 0.1 N of acetic solution pH 4.5. […] The reduction, however, was approximately half of the decrease seen under acidic conditions.

[3] = test system: mucin extracted from porcine guts; assay: Effects of cysteamine at nM concentrations on mucin extracted from porcine guts; assay type: biochemical; conditions: FIG. 11
Description: FIG. 11 showing the effects of cysteamine at nM concentrations, on mucin extracted from porcine guts.

NCCS [Cysteamine bitartrate, reference compound]
mucin clearance on airway surface epithelium [1]: cleared from the luminal surface | displaced volume percentage of porcine mucin as a function of time (0-12 seconds) (Porcine mucin 15% (W/V)): noticeably reduced | anti-mucin effect against gastric mucin, Muc5ac in particular [2]: anti-mucin effect against gastric mucin | accumulation of viscous mucus and mucociliary clearance (porcine airway): prevented accumulation of viscous mucus and improves mucociliary clearance | influence of acidic conditions on mucolytic effect (porcine airway mucus): enhanced when acidic conditions are used | dose dependence of mucolytic effect [3]: dose dependent
